Key:
[1] = system: clathrin-dependent endocytosis; experiment: Internalization route of BODIPY-LacCer stereoisomers; type: cell-based; settings: data not shown
[2] = system: clathrin-dependent endocytosis; settings: Singh et al., J. Biol. Chem. 2006; cited from earlier work
rat fibroblasts = experiment: Inhibition of lipid analog endocytosis by biochemical treatments in rat fibroblasts; type: cell-based
Source text: To define the molecular features of GSL analogs and their ability to selectively internalize by caveolar endocytosis, the structure of the natural D-erythro-LacCer compound was modified (Singh, R. D., et al. Mol. Biol. Cell, 2003, 14, 3254). The modifications included those to the structure of the fluorescent lipid through variations to its carbohydrate headgroup, chain length of the sphingosine base, or chain length of the fluorescent fatty acid (see FIG. 6). Tests were designed to test initial internalization and sensitivity to inhibitor treatments.
To investigate the structural determinants of GSLs that result in selective internalization via caveolae, the structure of the fluorescent GSL analogs were systematically varied (see FIG. 6) and examined to determine the effect of these variations on the mechanism of analog internalization. To examine the significance of the carbohydrate head group, the fluorescent analogs of GalCer, globoside, GM1, LacCer, MalCer, and sulfatide were used. For each of these fluorescent GSL analogs, the fluorescent fatty acid and sphingosine base were identical (n′=3, n=7; FIG. 6A). Rat fibroblasts (RFs) were incubated with each analog in the presence or absence of various inhibitors to differentiate clathrin-dependent from clathrin-independent endocytosis, and the amount of internalization (at 5 min) was quantified by image analysis.
A control experiment was carried out exactly as above, except that BODIPY-LacCer was introduced into cells from an ethanolic solution rather than from a BSA complex.
Furthermore, the importance of hydrophobicity on the mechanism of GSL endocytosis was examined. For these studies, the BODIPY-LacCer analogs that were used varied the chain length of the sphingosine base (C12 to C20), or fatty acid (C3 vs. C5 spacer) (n=1, 5, 7, or 9; n′=1 or 3; FIG. 6A).
Finally, a comparison between NBD-LacCer and NBD-D-PC (see FIG. 6B)was made to study the possible influence of the lipid backbone (ceramide vs. glycerol) on the internalization mechanism.

SV40 virus [3] = experiment: SV40 infection of CV1 cells (large T antigen expression); type: cell-based, monkey; settings: CV1 cells pretreated with lipid and SV40 at low temperature, then 37° C. for 14 hrs
[4] = system: caveolar endocytosis in HSFs; experiment: Uptake of endocytic markers in human skin fibroblasts (fluorescence microscopy); type: cell-based; settings: HSFs treated 30 min at 10° C. with lipid, pulse labeled, 5 min at 37° C.
Protocol: HSFs were either untreated (Control) or treated for 30 min at 10° C. with D-erythro or L-threo-C8-LacCer, and then pulse labeled with fluorescent albumin or β1-integrin Fab (caveolar markers), Tfn (clathrin marker), dextran (fluid phase marker), or anti-IL2R Fab (for RhoA pathway). After 5 min at 37° C., cells were acid-stripped to remove non-internalized marker and images were acquired by fluorescence microscopy (A) and quantified (B). At least 20 cells for each condition were analyzed in multiple experiments. Bar, 10 μm.
The non-natural (L-threo; LT) isomers of C8-LacCer and BODIPY-LacCer were synthesized. The latter was synthesized by the method detailed in Liu, Y., et al. Chem. Phys. Lipids, 2006, 142, 58 (referred to as Liu). C8-LT-LacCer was prepared through a modification of the methods used in Liu, where an activated for of octanoic acid was used in place of BODIPY-C5-NHS. HSFs were then either untreated (Control) or treated for 30 min at 10° C. with D-erythro (DE) or L-threo (LT) C8-LacCer, and then pulse labeled with fluorescent albumin or anti-β1-integrin Fab (caveolar markers), Tfn (clathrin marker), dextran (fluid phase marker), or anti-IL2R Fab (for RhoA pathway). After 5 min at 37° C., cells were acid-stripped to remove non-internalized marker and images were acquired by fluorescence microscopy (A) and quantified (B). At least 20 cells for each condition were analyzed in multiple experiments. Bar, 10 μm.

[5] = system: PM domains enriched in GM1 ganglioside; experiment: PM microdomain clustering induced by CtxB and anti-CtxB Ab in HSFs; type: cell-based, human; settings: HSFs pretreated with lipid 30 min at 10° C.
Source text: (§1) PM domains enriched in GM1 ganglioside (A,B) or cholesterol (C) were visualized using fluorescent CtxB or BC-⊖, respectively. Clustering of these probes was induced using an anti-CtxB Ab or SV40. Note the inhibition of microdomain clustering when cells were pretreated with C8-LT-LacCer, compared to untreated control samples. (A), HSFs; (B,C) CV1 cells. Bars, 10 μm.
A potential mechanism for C8-LT-LacCer inhibition of caveolar endocytosis, namely disruption of PM microdomain formation, was explored. This mechanistic possibility was tested through incubation of cells with AF594-CtxB at 10° C. to label […] at the PM, followed by an anti-Ctx-B IgG.

[6] = system: PM domains enriched in GM1 ganglioside and cholesterol; experiment: SV40-induced PM domain formation in CV1 cells; type: cell-based, monkey; settings: CV1 cells pretreated with lipid, low temperature
Source text: as §1

β1-integrin = target: T1, β1-integrin (Homo sapiens, UniProt P05556); experiment: β1-integrin activation in HSFs (HUTS-4 Ab binding); type: cell-based; settings: for HUTS binding (β1-integrin activation), agent alone: HSFs, lipid in the absence of β1-stim Ab, or β1-stim Ab alone
T1 construct: endogenous in cells; host or cells: human skin fibroblasts (HSFs)
Protocol: FIG. 4a: HSFs were serum-starved for 2-3 hrs and then either untreated (panel 1, Control) or incubated with a stimulating β1-integrin IgG (panel 2; β1-stim) or with the LacCer isomers (panels 3 & 4) for 30 min at 10° C. All samples were then warmed for 30 sec at 37° C., fixed and stained with HUTS-4 Ab that recognizes β1-integrin in its active conformation. Note the absence of β1-integrin activation in cells pretreated with C8-LT-LacCer. Quantitation in FIG. 4b was by image analysis (n≧10 cells/condition; 3 independent experiments). Bars, 10 μm.
A further mechanistic possibility by which C8-LT-LacCer might inhibit caveolar internalization is by disruption transmembrane signaling events required for endocytosis. […] The first examination involved the activation of β1-integrin in HSFs following crosslinking with a stimulatory Ab (β1-stim Ab) using the HUTS-4 Ab which only binds to β1-integrins in their activated conformation (see, e.g., Luque, A. et al., J. Biol. Chem. 1996, 271, 11067).

SV40 virus [7] = experiment: SV40 binding to CV1 cells (anti-SV40 VP1 MAb); settings: lipid and SV40 at low temperature
Protocol: (A, B) CV1 cells were incubated LacCer stereoisomers for 30 min at 10° C., and then coincubated for 1 hr at 10° C. with SV40 virus (MOI=15). Samples were washed, incubated for 40 hrs in complete medium, fixed, permeabilized, and stained for the Large T antigen. Values in (B) are mean ±SD (n≧50 cells/condition; three independent experiments). (C, D) CVI cells were treated with SV40 for 1 hr as in (A,B) and SV40 binding to live cells was detected using anti-SV40 VP1 MAb. Values in D are mean ±SD (n≧20 cells from two independent experiments).
Cells were treated with the C8-LT-LacCer isomer and SV40 at low temperature, washed, and then incubated with a monoclonal antibody to the SV40 major capsid protein VP1.

src kinase = experiment: src phosphorylation (Y416) immunoblot in HSFs; type: cell-based, human; settings: for src activation (phosphorylation at Y416), lipid alone: 30 min at 10° C., then 30 sec at 37° C.; for src phosphorylation induced by β1-stim Ab: cells pretreated with lipid, data not shown
Protocol: HSFs were treated with C8-DE-LacCer (±PP2), C8-LT-LacCer, PDGF, or with β1 stim Ab±LacCer isomers. Samples were warmed for 30 sec at 37° C., lysed, and the cell lysates blotted for src and phosphor-Src (Y416).
Cells were incubated for 30 min at 10° C.± the LacCer stereoisomers and/or the β1-stim Ab followed by a 30 sec incubation at 37° C. Cell lysates were then immunoblotted for src and phospho-(Y416) src.

human eosinophils [8] = experiment: Eosinophil adhesion to tissue culture wells; type: cell-based
human eosinophils [9] = experiment: Eosinophil superoxide generation (cytochrome c reduction); type: cell-based; settings: versus medium alone, 37° C., up to 4 h
Protocol: Human eosinophils were purified from normal individuals or patients with mild allergy by Percoll density gradient centrifugation and magnetic cell sorting using MACS anti-CD16 microbeads as described by Hansel T. T., et al., J. Immunol. Methods 1991, 145, 105. Briefly, after peripheral blood was overlaid on an isotonic Percoll solution (1.084 g.ml, Sigma), the blood was centrifuges at 1000×g for 30 min at 4° C. Mononuclear cells at the interface were removed, and erythrocytes in sediment were lysed by two cycles of hypotonic water lysis. […] The purity of eosinophils counted by Randolph's stain was >98%. […]
Superoxide anion generation and degranulation by human eosinophils were used as readouts of eosinophils functions in response to proteases or synthetic PAR activating peptides. Generation of superoxide by eosinophils was measured by superoxide dismutase-inhibitable reduction of cytochrome c as previously described with slight modifications. […] Immediately after addition of stimuli, the reaction wells were measured for absorbance at 550 nm in a microplate autoreader (Thermomax, Molecular Devices, Menlo Park, Calif.), followed by repeated readings. Between absorbance measurements, the plate was incubated at 37° C. […] To quantitate eosinophils degranulation, the concentrations of eosinphil-derived neutrotoxin (EDN) in the sample supernatants were measure by specific RIA.

[10] = system: PM domains enriched in GM1 ganglioside; settings: Singh et al., 2006, submitted; cited from earlier work

T1 sequence (P05556 21-798): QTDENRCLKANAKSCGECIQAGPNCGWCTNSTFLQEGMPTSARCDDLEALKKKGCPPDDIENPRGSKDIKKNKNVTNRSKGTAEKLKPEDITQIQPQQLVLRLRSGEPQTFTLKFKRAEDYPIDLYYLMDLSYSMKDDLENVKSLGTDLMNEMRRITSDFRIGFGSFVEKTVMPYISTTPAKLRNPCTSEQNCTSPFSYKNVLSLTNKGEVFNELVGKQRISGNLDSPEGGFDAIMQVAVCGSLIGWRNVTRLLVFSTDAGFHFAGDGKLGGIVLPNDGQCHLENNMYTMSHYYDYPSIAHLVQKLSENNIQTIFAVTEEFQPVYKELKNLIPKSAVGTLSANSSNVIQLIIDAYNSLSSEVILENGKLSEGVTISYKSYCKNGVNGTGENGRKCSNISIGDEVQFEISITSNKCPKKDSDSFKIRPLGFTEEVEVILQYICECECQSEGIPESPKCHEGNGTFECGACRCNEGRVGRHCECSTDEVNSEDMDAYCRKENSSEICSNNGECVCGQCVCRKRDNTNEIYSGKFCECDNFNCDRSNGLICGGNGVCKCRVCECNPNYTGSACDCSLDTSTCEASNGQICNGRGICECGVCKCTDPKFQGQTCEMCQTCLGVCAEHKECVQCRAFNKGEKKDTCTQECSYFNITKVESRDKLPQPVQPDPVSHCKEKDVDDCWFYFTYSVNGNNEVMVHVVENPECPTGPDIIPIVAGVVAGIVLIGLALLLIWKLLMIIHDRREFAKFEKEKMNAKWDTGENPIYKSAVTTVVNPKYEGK

C5-BODIPY-L-threo-lactosylceramide [BODIPY-LT-LacCer]
fraction internalized by clathrin-dependent endocytosis [1]: 65-70%

CCCCCCCCCCCCC/C=C/[C@@H](O)[C@H](CO[C@@H]1O[C@H](CO)[C@@H](O[C@@H]2O[C@H](CO)[C@H](O)[C@H](O)[C@H]2O)[C@H](O)[C@H]1O)NC(=O)CCCCc1ccc2n1[B-](F)(F)[N+]1=C(C)C=C(C)C1=C2 [BODIPY-LacCer]
internalization route [2]: internalized via caveolae
sensitivity of internalization to chlorpromazine (CPZ) (rat fibroblasts): not by chlorpromazine
sensitivity of internalization to nystatin (rat fibroblasts): substantially inhibited
inhibition of endocytosis when delivered by ethanol injection vs. BSA complex (rat fibroblasts; ethanolic solution): virtually identical results
Inhibition of lipid analog endocytosis, Clathrin-dependent internalization, Chloropromazine (rat fibroblasts; internalization at 5 min): 9.3 ± 1.7%
Inhibition of lipid analog endocytosis, Clathrin-dependent internalization, K+-depletion (rat fibroblasts; internalization at 5 min): 10.4 ± 1.3%
Inhibition of lipid analog endocytosis, Clathrin-independent internalization, Genistein (rat fibroblasts; internalization at 5 min): 73.9 ± 4.1%
Inhibition of lipid analog endocytosis, Clathrin-independent internalization, Nystatin (rat fibroblasts; internalization at 5 min): 75.1 ± 6.8%

CCCCCCCCCCCCC/C=C/[C@H](O)[C@H](CO[C@@H]1O[C@H](CO)[C@@H](O[C@@H]2O[C@H](CO)[C@H](O)[C@H](O)[C@H]2O)[C@H](O)[C@H]1O)NC(=O)CCCCCCC [C8-LT-LacCer, β-D-lactosyl-N-octanoyl-L-threo-sphingosine]
SV40 infection monitored by expression of the large T antigen (SV40 virus [3]): dramatically reduced
uptake of caveolar markers (fluorescent albumin, β1-integrin Fab) [4]: inhibited uptake of multiple caveolar markers
uptake of caveolar markers (fluorescent albumin, β1-integrin Fab) ([4]; listed as LT-isomer of C8-LacCer): selectively inhibiting caveolar endocytosis
clustering of PM domains induced by labeled CtxB and crosslinking Ab [5]: no clustering of PM domains was observed
SV40 induction of PM domains [6]: prevented the SV40 induction of these PM domains
HUTS binding (β1-integrin activation) induced by β1-stim Ab (β1-integrin; HSFs pretreated with lipid prior to β1-stim Ab): reduced HUTS binding to levels seen in untreated control cells
HUTS binding (β1-integrin activation), agent alone (β1-integrin): no increase in HUTS binding was seen
inhibition of SV40 binding to CV1 cells (SV40 virus [7]): about 80%
src activation (phosphorylation at Y416), lipid alone (src kinase): little or no src activation
src phosphorylation induced by β1-stim Ab (src kinase): inhibited src phosphorylation

CC(C)(C)n1nc(-c2ccc(Cl)cc2)c2c(N)ncnc21 [PP2]
src activation induced by C8-DE-LacCer (src kinase; with src inhibitor): blocked

CCCCCCCCCCCCC/C=C/[C@@H](O)[C@H](CO[C@@H]1O[C@H](CO)[C@@H](O[C@@H]2O[C@H](CO)[C@H](O)[C@H](O)[C@H]2O)[C@H](O)[C@H]1O)NC(=O)CCCCCCC [C8-DE-LacCer]
SV40 infection monitored by expression of the large T antigen (SV40 virus [3]): no effect
uptake of caveolar markers (fluorescent albumin, β1-integrin Fab) [4]: stimulated caveolar uptake
adhesion of eosinophils (human eosinophils [8]): induces adhesion of eosinophils to tissue culture wells
clustering of PM domains induced by labeled CtxB and crosslinking Ab [5]: No inhibition of domain formation was observed
superoxide production by eosinophils (human eosinophils [9]): A large quantity of superoxide was produced
HUTS binding (β1-integrin activation), agent alone (β1-integrin): activated β1-integrin
formation of PM domains in the absence of a crosslinking Ab [10]: induced the formation of large domains enriched in GM1 ganglioside and cholesterol
src activation (phosphorylation at Y416), lipid alone (src kinase): activated (phosphorylated at Y416)
src phosphorylation induced by β1-stim Ab (src kinase): did not significantly affect src phosphorylation

Source: patent US8263576B2, “Non-natural sphingolipid analogs and uses thereof” (Mayo Foundation for Medical Education and Research, priority 2006, dated 2012)
